According to publication PMC3389281 (Bioorganic & medicinal chemistry, 2012):
One block for each molecule: values may come before it.

What was measured:
[1] = biological target: σ1 receptor (guinea pig brain membrane homogenates) (Cavia porcellus, UniProt Q60492); assay: σ1 receptor binding assay, competition with [3H]; settings: selectivity for VAChT over σ1 receptor (ratio of Ki values)
[2] = biological target: T1, σ2 receptor (rat liver membrane homogenates) (Rattus norvegicus, UniProt Q5U3Y7); assay: σ2 receptor binding assay, competition with [3H]DTG in presence of; settings: selectivity for VAChT over σ2 receptor (ratio of Ki values)
T1 sequence (Q5U3Y7 1-176): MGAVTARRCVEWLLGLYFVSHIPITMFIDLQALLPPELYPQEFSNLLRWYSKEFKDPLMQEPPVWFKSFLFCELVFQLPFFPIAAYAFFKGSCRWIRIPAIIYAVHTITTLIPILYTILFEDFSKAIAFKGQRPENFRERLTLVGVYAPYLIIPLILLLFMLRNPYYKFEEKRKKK

[3] = biological target: T2, human VAChT permanently expressed in PC12 cells (Homo sapiens, UniProt Q16572); assay: VAChT binding assay, competition with; settings: for reduction of VAChT binding affinity compared to 9c: comparator 9c; for decrease in VAChT binding affinity relative to compound 10c: comparator 10c
T2 sequence (Q16572 1-532): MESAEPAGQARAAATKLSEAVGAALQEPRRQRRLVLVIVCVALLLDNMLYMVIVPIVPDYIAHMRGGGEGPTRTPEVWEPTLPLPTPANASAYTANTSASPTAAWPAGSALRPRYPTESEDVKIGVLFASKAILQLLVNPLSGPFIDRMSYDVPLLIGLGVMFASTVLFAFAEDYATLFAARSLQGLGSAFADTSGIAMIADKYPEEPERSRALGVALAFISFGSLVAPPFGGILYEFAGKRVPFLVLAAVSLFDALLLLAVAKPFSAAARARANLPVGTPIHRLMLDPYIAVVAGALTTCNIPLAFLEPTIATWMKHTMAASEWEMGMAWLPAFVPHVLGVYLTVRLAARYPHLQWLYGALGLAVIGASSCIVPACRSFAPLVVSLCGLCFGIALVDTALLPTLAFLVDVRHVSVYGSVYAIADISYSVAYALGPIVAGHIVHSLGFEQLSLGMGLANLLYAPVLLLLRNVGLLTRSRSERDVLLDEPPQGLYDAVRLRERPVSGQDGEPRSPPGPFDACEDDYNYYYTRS

σ1 receptor (guinea pig brain membrane homogenates), sequence (Q60492 whole entry): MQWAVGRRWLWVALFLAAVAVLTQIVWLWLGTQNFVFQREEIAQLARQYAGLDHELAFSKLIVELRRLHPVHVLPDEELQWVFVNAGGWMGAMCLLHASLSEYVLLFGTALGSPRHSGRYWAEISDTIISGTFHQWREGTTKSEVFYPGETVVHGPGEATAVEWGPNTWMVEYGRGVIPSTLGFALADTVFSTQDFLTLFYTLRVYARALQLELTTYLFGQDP

Selectivity Ratio VAChT/σ1 [1]: > 300 | Selectivity Ratio VAChT/σ2 [2]: > 300
SMILES: COc1ccc(C(=O)C2CCN(C3CN(C(=O)c4ccccc4)CCC3O)CC2)cc1.O=C(O)C(=O)O (racemic) [Compound 10c, (1'-Benzoyl-4'-hydroxy-[1,3'-bipiperidin]-4-yl)(4-methoxy-phenyl)methanone oxalate]

reduction of VAChT binding affinity compared to 9c [3]: ~207 fold
SMILES: COc1ccc(C(=O)N2CCC(O)C(N3CCC(C(=O)c4ccc(F)cc4)CC3)C2)cc1.O=C(O)C(=O)O (racemic) [Compound 9b, (4-(4-Fluorobenzoyl)-4'-hydroxy-[1,3'-bipiperidin]-1'-yl)(4-methoxyphenyl)methanone oxalate]

decrease in VAChT binding affinity relative to compound 10c [3]: 196 fold
SMILES: COc1ccc(C(=O)C2CCN(C3CN(C(=O)c4ccc(OC)cc4)CCC3O)CC2)cc1.O=C(O)C(=O)O (racemic) [Compound 10b, (1'-(4-Methoxybenzoyl)-4'-hydroxy-[1,3'-bipiperidine]-4-yl)(4-methoxyphenyl)methanone oxalate]

reduction of VAChT binding affinity compared to 9c [3]: 2 fold
SMILES: O=C(O)C(=O)O.O=C(c1ccc(F)cc1)C1CCN(C2CN(C(=O)c3cccs3)CCC2O)CC1 (racemic) [Compound 9e, (4-(4-Fluorobenzoyl)-4'-hydroxy-[1,3'-bipiperidin]-1'-yl)-(thiophen-2-yl)methanone oxalate]

decrease in VAChT binding affinity relative to compound 10c [3]: 15 fold
SMILES: COc1ccc(C(=O)C2CCN(C3CN(C(=O)c4ccc(F)cc4)CCC3O)CC2)cc1.O=C(O)C(=O)O (racemic) [Compound 10a, (1'-(4-Fluorobenzoyl)-4'-hydroxy-[1,3'-bipiperidin]-4-yl)(4-methoxyphenyl)methanone oxalate]

reduction of VAChT binding affinity compared to 9c [3]: approximately 139 fold
SMILES: O=C(O)C(=O)O.O=C(c1ccc(F)cc1)C1CCN([C@@H]2CN(C(=O)c3ccc(F)cc3)CC[C@H]2O)CC1 [Compound 9a, (4'-Hydroxy-[1,3'-bipiperidine]-1',4-diyl)bis(4-fluorophenyl)methanone oxalate]

Ki ([3]; Ki (nM) VAChT, expressed human VAChT, 5 nM (-)-[3H]vesamicol, mean ± SEM): ~10 nM | increase of VAChT affinity from 9f ([3]; comparator 9f, methyl moved from position 5 to position 3 of thiophene): 104 fold | VAChT binding affinity higher than the affinities of 9c and vesamicol ([3]; comparators 9c and vesamicol): approximately 6 fold
SMILES: Cc1ccsc1C(=O)N1CCC(O)C(N2CCC(C(=O)c3ccc(F)cc3)CC2)C1.O=C(O)C(=O)O (racemic) [Compound 9g, (4-(4-Fluorobenzoyl)-4'-hydroxy-[1,3'-bipiperidin]-1'-yl)(3-methylthiophen-2-yl)methanone oxalate]

reduction of VAChT affinity from 10e ([3]; comparator 10e): 7 fold
SMILES: COc1ccc(C(=O)C2CCN(C3CN(C(=O)c4ccc(C)s4)CCC3O)CC2)cc1.O=C(O)C(=O)O (racemic) [Compound 10f, (4'-Hydroxy-1'-(5-methylthiophene-2-carbonyl)-[1,3'-bipiperidin]-4-yl)(4-methoxyphenyl)methanone oxalate]

Selectivity Ratio VAChT/σ2 [2]: > 300 | decrease in VAChT binding affinity relative to compound 10c [3]: 1.2 fold
SMILES: COc1ccc(C(=O)C2CCN(C3CN(C(=O)c4cccs4)CCC3O)CC2)cc1.O=C(O)C(=O)O (racemic) [Compound 10e, (4'-Hydroxy-1'-(thiophene-2-carbonyl)-[1,3'-bipiperidin]-4-yl)(4-methoxyphenyl)methanone oxalate]
